Data taken from PMC10914731, “Homo-BacPROTAC-induced degradation of ClpC1 as a strategy against drug-resistant mycobacteria” (Nature Communications, 2024).
In brackets after ≈: the same amount, converted by molar mass. Several values for one entry are separate records, joined by “and”; a condition that tells them apart may be missing. Equal values may be shown once. Read-outs that look alike come from different tables or passages of the source. Where a SMILES comes first, the peptide text is derived from it. [ ]: non-standard residue; d: D form. NMeLeu(5-OH,4R) = CN[C@@H](C[C@@H](C)CO)C(=O)O; Phe(βR-OMe) = CO[C@H](c1ccccc1)[C@H](N)C(=O)O; Trp(1-Me) = Cn1cc(C[C@H](N)C(=O)O)c2ccccc21; NMeL = CN[C@@H](CC(C)C)C(=O)O; Pra = C#CC[C@H](N)C(=O)O

What was measured:
in vitro = details: human
Summary of the method: (§1)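 Values are bidirectional Caco-2 apparent permeabilities, P(A−B) and P(B−A), given in 10^-6 cm s-1. The efflux ratio divides P(B−A) by P(A−B), and intrinsic permeability averages the two directions.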

Caco-2 monolayers = assay: in vitro
Summary of the method: as §1

[1] = Hepatocyte stability, mice; assay type: in vitro ADME
Summary of the method: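 Cryopreserved mouse hepatocytes (about 1 million cells/mL, pH 7.4, 50% species serum) incubated with 1 µM compound, DMSO <0.05%, at 37 °C for up to 6 h, sampled at 6 time points. Parent remaining measured by HPLC-MS/MS; half-life converted via well-stirred liver model to clearance as % Qh.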

[2] = system: M. tuberculosis H37Rv (ATCC 27294); assay: microbe, parasite or virus in culture; assay type: cell-based
Msm 607 = assay: microbe, parasite or virus in culture; assay type: cell-based
[3] = system: Mtb (katG del) ATCC 35822; assay: microbe, parasite or virus in culture; assay type: cell-based; details: Mycobacterium tuberculosis
Mtb # 8673 = assay: microbe, parasite or virus in culture; assay type: cell-based
Mtb ATCC 35825 = assay: microbe, parasite or virus in culture; assay type: cell-based
Staphylococcus aureus = assay: MIC ESKAPES panel, Staphylococcus aureus; assay type: cell-based
Description: (§2) Minimum inhibitory concentration (MIC) against ESKAPES panel of Gram positive and Gram negative pathogens (Enterococcus faecium, Staphylococcus aureus, Klebsiella pneumoniae, Acinetobacter baumannii, Pseudomonas aeruginosa, Enterobacter cloacae and Salmonella typhimurium [ESKAPES panel]) were determined at the FNDR by the standard broth dilution method [CLSI, M100]. […] Mueller Hinton broth (MHB) medium was used to grow ESKAPES panel strains. The individual cultures were added as 200 μL (inoculum of 3–7 × 10^5 cfu/ml) to the respective assay plates in each well to all columns, except the media control (200 μL of medium). […] The assay plates were incubated at 37 °C, and the results were noted on the 2nd day as turbidometric readout. The clear wells indicated inhibition of growth, while the turbid wells indicated uninhibited growth.

Pseudomonas aeruginosa = assay: MIC ESKAPES panel, Pseudomonas aeruginosa; assay type: cell-based
Description: as §2

Mycobacterium avium = assay: microbe, parasite or virus in culture; assay type: cell-based
Msm #607 = assay: Minimum bactericidal concentration (MBC), Msm #607; assay type: cell-based, Mycobacterium smegmatis; details: Mycolicibacterium smegmatis

SMILES: C#CC[C@@H]1NC(=O)[C@H](CC(C)C)N(C)C(=O)[C@H](C(C)C)NC(=O)[C@H]([C@H](OC)c2ccccc2)NC(=O)[C@H](C)NC(=O)[C@H](C[C@@H](C)CO)N(C)C(=O)[C@H](Cc2cn(C)c3ccccc23)NC1=O [Compound 10] (cyclo(A[Phe(βR-OMe)]V[NMeL][Pra][Trp(1-Me)][NMeLeu(5-OH,4R)]))
- Papp B→A (in vitro; Caco-2, CACO permeability PEBA, basolateral to apical): 19 ×10⁻⁶ cm/s
- Papp A→B (in vitro; Caco-2, Caco-2 permeability P (A-B), apical to basolateral): < 0.1 ×10⁻⁶ cm/s
- CACO permeability PEBA (Caco-2 monolayers; basolateral to apical): 14 ×10⁻⁶ cm/s
- Caco-2 Int. Perm (Caco-2 monolayers; mean value of P(A−B) and P(B−A)): 7.1 10-6 cm s-1
- Hepatocyte Stability Mouse QH ([1]; Mouse): 64.420%
- Hepatocyte Mice ([1]; clearance in hepatocytes): 64 %Qh
- MIC ([2]; M. tuberculosis H37Rv 27294, single well replicates, read-out: MIC): 3.125 µM (≈ 2.85 µg/mL)
- MIC ([2]; Mycobacterium tuberculosis, M. tuberculosis H37Rv 27294, single well replicates, read-out: MIC): 3.12 µM (≈ 2.85 µg/mL)
- MIC ([2]; Mycobacterium tuberculosis, M. tuberculosis H37Rv strain, read-out: MIC Mtb H37Rv Mean ± SD): 3.1 µM (≈ 2.83 µg/mL)
- MIC ([2]; Mycobacterium tuberculosis, Mtb H37Rv (Supplementary Table 2), read-out: MIC Mtb): 3.1 µM (≈ 2.83 µg/mL)
- MIC ([2]; Mycobacterium tuberculosis, Mtb H37Rv, mean ± SD, n = 3 well replicates, read-out: MIC): 3.1 µM (≈ 2.83 µg/mL)
- MIC ([2]; Mycobacterium tuberculosis, Set 1, read-out: MIC (Mtb H37Rv) Set 1): 3.13 µM and 2.85 µg/mL
- MIC ([2]; Mycobacterium tuberculosis, Set 2, read-out: MIC (Mtb H37Rv) Set 2): 3.13 µM and 2.85 µg/mL
- MIC ([2]; Mycobacterium tuberculosis, Set 3, done at a different day than Set 1 and Set 2, read-out: MIC (Mtb H37Rv) Set 3): 3.13 µM and 2.85 µg/mL
- MIC ([2]; Mycobacterium tuberculosis, individual example (Supplementary Table 11), read-out: MIC Mtb H37Rv): 3.1 µM and 2.9 µg/mL
- MIC ([2]; Mycobacterium tuberculosis, individual measurements (source data), read-out: Mtb MIC): 3.12 µM (≈ 2.85 µg/mL)
- MIC ([2]; Mycobacterium tuberculosis, mean of 3 experiments +/- SD, unit taken from the sets above in the same table, read-out: MIC data (Mtb H37Rv) (+/- SD)): 3.13 µM and 2.85 µg/mL
- MIC ([2]; Mycobacterium tuberculosis, single determinations, read-out: Mtb MIC): 3.12 µM (≈ 2.85 µg/mL)
- MIC ([2]; individual measurements (source data), read-out: Mtb MIC): 3.125 µM (≈ 2.85 µg/mL)
- MIC (Msm 607; Mycolicibacterium smegmatis, 607, read-out: MIC Msm 607): 3.1 µM (≈ 2.83 µg/mL)
- MIC (Msm 607; Mycolicibacterium smegmatis, 607, read-out: MIC Msm #607, individual example (Supplementary Table 11)): 6.3 µM and 5.7 µg/mL
- MIC (Msm 607; Mycolicibacterium smegmatis, 607, read-out: Msm 607 MIC, single determinations): 3.12 µM (≈ 2.85 µg/mL)
- MIC (Msm 607; Mycolicibacterium smegmatis, ATCC607, Set-1, read-out: MIC (Msm ATCC607) Set-1): 3.12 µM and 2.85 µg/mL
- MIC (Msm 607; Mycolicibacterium smegmatis, ATCC607, Set-2, read-out: MIC (Msm ATCC607) Set-2): 6.25 µM and 5.71 µg/mL
- MIC (Msm 607; Mycolicibacterium smegmatis, ATCC607, Set-3, done at a different day than Set 1 and Set 2, read-out: MIC (Msm ATCC607) Set-3): 3.12 µM and 2.85 µg/mL
- MIC (Msm 607; Mycolicibacterium smegmatis, ATCC607, mean of 3 experiments ± SD, read-out: MIC including standard deviations (Msm ATCC607)): 4.16 µM and 3.8 µg/mL
- MIC ([3]; ATCC35822, M. tuberculosis ATCC 35822, single well replicates): 1.56 µM (≈ 1.42 µg/mL)
- MIC ([3]; ATCC35822, Mtb (katG del) ATCC 35822, mean ± SD, n = 3 well replicates): 1.6 µM (≈ 1.46 µg/mL)
- MIC (Mtb # 8673; Mycobacterium tuberculosis, mean, n = 2 well replicates): 0.4 µM and 0.4 µg/mL
- MIC (Mtb # 8673; Mycobacterium tuberculosis, single well replicates): 0.39 µM and 0.36 µg/mL
- MIC (Mtb # 8673; single well replicates): 0.39 µM (≈ 0.356 µg/mL)
- MIC Mtb # 8673 (Mtb # 8673; single well replicates): 0.36 µg/mL (≈ 0.394 µM)
- MIC (Mtb ATCC 35825; Mycobacterium tuberculosis, ATCC35825, mean, n = 2 well replicates): 0.4 µM and 0.4 µg/mL
- MIC (Mtb ATCC 35825; Mycobacterium tuberculosis, ATCC35825, single well replicates): 0.36 µg/mL and 0.39 µM
- MIC (Mtb ATCC 35825; single well replicates): 0.39 µM (≈ 0.356 µg/mL)
- MIC Mtb ATCC 35825 (Mtb ATCC 35825; single well replicates): 0.36 µg/mL (≈ 0.394 µM)
- MIC (Staphylococcus aureus; Gram-Positive Bacteria, replicates 1-3): >50 µM
- MIC (Staphylococcus aureus; Staphylococcus aureus, Gram positive, n = 3 well replicates): > 50 µM
- MIC (Staphylococcus aureus; Staphylococcus aureus, Gram-Positive Bacteria, replicates 1-3): > 45.6 µg/mL
- MIC (Pseudomonas aeruginosa; Gram-Negative Bacteria, replicates 1-3): >50 µM
- MIC (Pseudomonas aeruginosa; Pseudomonas aeruginosa, Gram negative, n = 3 well replicates): > 50 µM
- MIC (Pseudomonas aeruginosa; Pseudomonas aeruginosa, Gram-Negative Bacteria, replicates 1-3): > 45.6 µg/mL
- MIC (Mycobacterium avium; Experiment 1, read-out: MIC Mycobacterium avium): 12.5 µM
- MIC (µg/ml) Mycobacterium avium (Mycobacterium avium; Experiment 2, three replicate columns): 11.41 µg/mL (≈ 12.5 µM)
- MIC (Mycobacterium avium; Experiment 2, three replicate columns, read-out: MIC (µM) Mycobacterium avium): 12.5 µM
- MIC (Mycobacterium avium; Mycobacterium avium, Experiment 1, read-out: MIC Mycobacterium avium): 11.4 µg/mL
- MIC (Mycobacterium avium; Mycobacterium avium, Experiment 2, three replicate columns, read-out: MIC (µM) Mycobacterium avium): 12.5 µM
- MIC (Mycobacterium avium; Mycobacterium avium, Experiment 2, three replicate columns, read-out: MIC (µg/ml) Mycobacterium avium): 11.4 µg/mL
- MIC (Mycobacterium avium; Mycobacterium avium, mean ± SD, read-out: MIC Mycobacterium avium): 12.5 µM
- MBC (Msm #607; ATCC607, read-out: MBC (from Set 3) Msm ATCC 607): > 45.6 µg/mL and > 50 µM
- MBC (Msm #607; read-out: MBC Msm #607, individual example): > 50 µM and > 45.7 µg/mL
